From US20060069132A1, “Azolecarboxamide herbicides” (priority 2004, published 2006)

Columns and labels:
barnyardgrass [1] = assay: Test A pre-/postemergence herbicide test; assay type: in vivo, Echinochloa crus-galli
Method in brief: (§1)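 Sandy loam soil given preemergence directed spray; plants at 2 to 10 cm, one- to two-leaf stage, sprayed to runoff postemergence, compounds in non-phytotoxic solvent with surfactant. Injury rated visually versus untreated controls after about ten greenhouse days, 0 (no effect) to 100 (complete control); dash means not tested.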

large crabgrass [2] = assay: Test A pre-/postemergence herbicide test; assay type: in vivo, Digitaria sanguinalis
Method in brief: as §1

giant foxtail [3] = assay: Test A pre-/postemergence herbicide test; assay type: in vivo, Setaria faberi
Method in brief: as §1

morningglory [4] = assay: Test A pre-/postemergence herbicide test; assay type: in vivo, Ipomoea spp.
Method in brief: as §1

redroot pigweed = assay: Test A pre-/postemergence herbicide test; assay type: in vivo, Amaranthus retroflexus
Method in brief: as §1

velvetleaf [5] = assay: Test A pre-/postemergence herbicide test; assay type: in vivo, Abutilon theophrasti
Method in brief: as §1

barnyardgrass [6] = assay: Test B pre-/postemergence herbicide test; assay type: in vivo, Echinochloa crus-galli; conditions: for Plant response rating, Barnyardgrass: preemergence; for Barnyardgrass plant response rating: postemergence, visual rating, scale 0 (no effect) to 100 (complete control)
Method in brief: (§2)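 Test chemicals in a non-phytotoxic solvent mixture with surfactant were applied preemergence to seeded species and postemergence to plants 2-18 cm tall (1- to 4-leaf stage); rice and barnyardgrass were also tested in a flooded paddy at the 2-leaf stage. Visual rating versus controls after 13-15 days in greenhouse, scale 0 (no effect) to 100 (complete control).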

Surinam grass = assay: Test B pre-/postemergence herbicide test; assay type: in vivo, Urochloa decumbens; conditions: for Plant response rating, Surinam Grass: preemergence; for Surinam Grass plant response rating: postemergence, visual rating, scale 0 (no effect) to 100 (complete control)
Method in brief: (§3)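 Greenhouse pot assay with simultaneous preemergence (treated seed) and postemergence (2–18 cm seedlings) applications of surfactant-containing, non-phytotoxic solvent formulations. Response scored visually 13–15 days later on a 0–100 scale, 100 meaning complete control.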

cocklebur = assay: Test B pre-/postemergence herbicide test; assay type: in vivo, Xanthium strumarium; conditions: for Plant response rating, Cocklebur: preemergence; for Cocklebur plant response rating: postemergence, visual rating, scale 0 (no effect) to 100 (complete control)
Method in brief: as §2

corn = assay: Test B pre-/postemergence herbicide test; assay type: in vivo, Zea mays; conditions: for Plant response rating, Corn: preemergence; for Corn plant response rating: postemergence, visual rating, scale 0 (no effect) to 100 (complete control)
Method in brief: as §3

large crabgrass [7] = assay: Test B pre-/postemergence herbicide test; assay type: in vivo, Digitaria sanguinalis; conditions: for Plant response rating, Crabgrass, Large: preemergence; for Crabgrass, Large plant response rating: postemergence, visual rating, scale 0 (no effect) to 100 (complete control)
Method in brief: as §3

giant foxtail [8] = assay: Test B pre-/postemergence herbicide test; assay type: in vivo, Setaria faberi; conditions: for Plant response rating, Foxtail, Giant: preemergence; for Foxtail, Giant plant response rating: postemergence, visual rating, scale 0 (no effect) to 100 (complete control)
Method in brief: as §3

lambsquarters = assay: Test B pre-/postemergence herbicide test; assay type: in vivo, Chenopodium album; conditions: for Plant response rating, Lambsquarters: preemergence; for Lambsquarters plant response rating: postemergence, visual rating, scale 0 (no effect) to 100 (complete control)
Method in brief: as §3

morningglory [9] = assay: Test B pre-/postemergence herbicide test; assay type: in vivo, Ipomoea coccinea; conditions: for Plant response rating, Morningglory: preemergence; for Morningglory plant response rating: postemergence, visual rating, scale 0 (no effect) to 100 (complete control)
Method in brief: as §2

pigweed = assay: Test B pre-/postemergence herbicide test; assay type: in vivo, Amaranthus retroflexus; conditions: for Plant response rating, Pigweed: preemergence; for Pigweed plant response rating: postemergence, visual rating, scale 0 (no effect) to 100 (complete control)
Method in brief: as §3

velvetleaf [10] = assay: Test B pre-/postemergence herbicide test; assay type: in vivo, Abutilon theophrasti; conditions: for Plant response rating, Velvetleaf: preemergence; for Velvetleaf plant response rating: postemergence, visual rating, scale 0 (no effect) to 100 (complete control)
Method in brief: as §3

blackgrass = assay: Test B postemergence herbicide test; assay type: in vivo, Alopecurus myosuroides; conditions: postemergence, visual rating, scale 0 (no effect) to 100 (complete control)
Method in brief: (§4)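 Paddy species grown to the 2-leaf stage under flooding; blackgrass sprayed postemergence at 2–18 cm (1- to 4-leaf stage). Plants kept in a greenhouse for 13 to 15 days, then visually rated against controls on 0 (no effect) to 100 (complete control).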

wheat = assay: Test B postemergence herbicide test; assay type: in vivo, Triticum aestivum; set-up: key to Wheat plant response rating: 0 = no effect, 100 = complete control; conditions: postemergence, 500 g ai/ha; visual rating, scale 0 (no effect) to 100 (complete control)
Method in brief: (§5)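 Each value is a visual 0–100 response rating taken against controls 13 to 15 days after treatment in the greenhouse. Plants received formulated chemical postemergence at the 1- to 4-leaf stage or, in flooded paddy, at the 2-leaf stage.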

wild oat = assay: Test B postemergence herbicide test; assay type: in vivo, Avena fatua; conditions: postemergence, visual rating, scale 0 (no effect) to 100 (complete control)
Method in brief: as §5

rice = assay: Test B flooded paddy test; assay type: in vivo, Oryza sativa; conditions: 1000 g ai/ha, visual rating, scale 0 to 100 (0 no effect, 100 complete control), 13 to 15 days
Method in brief: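 Greenhouse test; postemergence application to plants at 1–4 leaves (2–18 cm); paddy species at 2 leaves; evaluated visually vs controls at 13–15 days; scale 0–100 (100 = complete control).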

[11] = test system: small flower umbrella sedge; assay: Test B flooded paddy test; assay type: in vivo, Cyperus difformis; conditions: 1000 g ai/ha, visual rating, scale 0 to 100 (0 no effect, 100 complete control), 13 to 15 days
Method in brief: as §4

ducksalad = assay: Test B flooded paddy test; assay type: in vivo, Heteranthera limosa; conditions: 1000 g ai/ha, visual rating, scale 0 to 100 (0 no effect, 100 complete control), 13 to 15 days
Method in brief: as §4

barnyardgrass [12] = assay: Test B flooded paddy test; assay type: in vivo, Echinochloa crus-galli; conditions: 1000 g ai/ha, visual rating, scale 0 to 100 (0 no effect, 100 complete control), 13 to 15 days
Method in brief: as §4

[13] = Postemergence, 500 g ai/ha, 0 to 100 scale, 0 no effect, 100 complete control
[14] = Postemergence, 2000 g ai/ha, 0 to 100 scale, 0 no effect, 100 complete control
[15] = Preemergence, 500 g ai/ha, visual rating, 0 to 100 scale (0 no effect, 100 complete control)
[16] = Preemergence, 2000 g ai/ha, visual rating, 0 to 100 scale (0 no effect, 100 complete control)
[17] = preemergence, 500 g ai/ha, visual injury, 0 to 100 scale (0 no effect, 100 complete control)
[18] = 500 g ai/ha, visual rating 0-100, 0 no effect, 100 complete control
[19] = 125 g ai/ha, 0 to 100 scale, 0 is no effect, 100 is complete control

CC(=NO)c1ccnc(NC(=O)c2cc(C(C)(C)C)nn2C)n1 [Compound 164]
Barnyardgrass plant response rating (barnyardgrass [1]; [13]): 10
Plant response rating, Barnyardgrass (barnyardgrass [1]; [14]): 10
Barnyardgrass plant response rating (barnyardgrass [1]; [15]): 0
Barnyardgrass plant response rating (barnyardgrass [1]; [16]): 0
Crabgrass, Large plant response rating (large crabgrass [2]; [13]): 10
Plant response rating, Crabgrass, Large (large crabgrass [2]; [14]): 10
Crabgrass, Large plant response rating (large crabgrass [2]; [15]): 0
Crabgrass, Large plant response rating (large crabgrass [2]; [16]): 0
Foxtail, Giant plant response rating (giant foxtail [3]; [13]): 0
Plant response rating, Foxtail, Giant (giant foxtail [3]; [14]): 0
Foxtail, Giant plant response rating (giant foxtail [3]; [15]): 0
Foxtail, Giant plant response rating (giant foxtail [3]; [16]): 0
Morningglory plant response rating (morningglory [4]; [13]): 10
Plant response rating, Morningglory (morningglory [4]; [14]): 5
Morningglory plant response rating (morningglory [4]; [15]): 0
Morningglory plant response rating (morningglory [4]; [16]): 0
Pigweed plant response rating (redroot pigweed; [13]): 0
Plant response rating, Pigweed (redroot pigweed; [14]): 0
Pigweed plant response rating (redroot pigweed; [16]): 0
Pigweed plant response rating (redroot pigweed; [17]): 0
Velvetleaf plant response rating (velvetleaf [5]; [13]): 5
Plant response rating, Velvetleaf (velvetleaf [5]; [14]): 0
Velvetleaf plant response rating (velvetleaf [5]; [16]): 0
Velvetleaf plant response rating (velvetleaf [5]; [17]): 0
Plant response rating, Barnyardgrass (barnyardgrass [6]; [18]): 0
Barnyardgrass plant response rating (barnyardgrass [6]; 125 g ai/ha): 0
Barnyardgrass plant response rating (barnyardgrass [6]; 500 g ai/ha): 0
Plant response rating, Barnyardgrass (barnyardgrass [6]; [19]): 0
Plant response rating, Surinam Grass (Surinam grass; [18]): 0
Surinam Grass plant response rating (Surinam grass; 125 g ai/ha): 0
Surinam Grass plant response rating (Surinam grass; 500 g ai/ha): 10
Plant response rating, Surinam Grass (Surinam grass; [19]): 0
Plant response rating, Cocklebur (cocklebur; [18]): 0
Cocklebur plant response rating (cocklebur; 125 g ai/ha): 0
Cocklebur plant response rating (cocklebur; 500 g ai/ha): 0
Plant response rating, Cocklebur (cocklebur; [19]): 0
Plant response rating, Corn (corn; [18]): 0
Corn plant response rating (corn; 125 g ai/ha): 0
Corn plant response rating (corn; 500 g ai/ha): 10
Plant response rating, Corn (corn; [19]): 0
Plant response rating, Crabgrass, Large (large crabgrass [7]; [18]): 0
Crabgrass, Large plant response rating (large crabgrass [7]; 125 g ai/ha): 0
Crabgrass, Large plant response rating (large crabgrass [7]; 500 g ai/ha): 0
Plant response rating, Crabgrass, Large (large crabgrass [7]; [19]): 0
Plant response rating, Foxtail, Giant (giant foxtail [8]; [18]): 0
Foxtail, Giant plant response rating (giant foxtail [8]; 125 g ai/ha): 0
Foxtail, Giant plant response rating (giant foxtail [8]; 500 g ai/ha): 0
Plant response rating, Foxtail, Giant (giant foxtail [8]; [19]): 0
Plant response rating, Lambsquarters (lambsquarters; [18]): 0
Lambsquarters plant response rating (lambsquarters; 125 g ai/ha): 0
Lambsquarters plant response rating (lambsquarters; 500 g ai/ha): 10
Plant response rating, Lambsquarters (lambsquarters; [19]): 0
Plant response rating, Morningglory (morningglory [9]; [18]): 0
Morningglory plant response rating (morningglory [9]; 125 g ai/ha): 0
Morningglory plant response rating (morningglory [9]; 500 g ai/ha): 0
Plant response rating, Morningglory (morningglory [9]; [19]): 0
Plant response rating, Pigweed (pigweed; [18]): 0
Pigweed plant response rating (pigweed; 125 g ai/ha): 0
Pigweed plant response rating (pigweed; 500 g ai/ha): 0
Plant response rating, Pigweed (pigweed; [19]): 0
Plant response rating, Velvetleaf (velvetleaf [10]; [18]): 0
Velvetleaf plant response rating (velvetleaf [10]; 125 g ai/ha): 0
Velvetleaf plant response rating (velvetleaf [10]; 500 g ai/ha): 0
Plant response rating, Velvetleaf (velvetleaf [10]; [19]): 0
Blackgrass plant response rating (blackgrass; 125 g ai/ha): 0
Blackgrass plant response rating (blackgrass; 500 g ai/ha): 0
Wheat plant response rating (wheat): 0
Oat, Wild plant response rating (wild oat; 125 g ai/ha): 0
Oat, Wild plant response rating (wild oat; 500 g ai/ha): 0
Rice plant response rating (rice): 0
Sedge, Umbrella plant response rating [11]: 0
Ducksalad plant response rating (ducksalad): 0
Barnyardgrass plant response rating (barnyardgrass [12]): 0
